Data on one molecule can be found in US4528188A, “Polysaccharide PS-A obtained from barrenwort deriving from plants belonging to the genus Epimedium, process for preparation thereof and phylactic and immunostimulating agents comprising said polysaccharide PS-A effective component” (priority 1981, dated 1985).

The subject of experiment [1] is E. coli ML 4707. Nature of the experiment: Combination with antibiotics, normal state (Table 11). Conditions: only ampicillin, 12.5 mg/kg twice. It counts as in vivo, E. coli; male mice of the ICR/JCL strain. As for the experimental part: A sample was administered subcutaneously to the back of each of 5-weeks-old male mice of the ICR/JCL strain having a body weight of about 25 g (each group consisting of 10 mice) once a day continuously for five days (5 times in total). PS was given to a control group. On the sixth day, 1.0×10^7 cells of E. coli ML 4707 was challenged thereto by the intraperitoneal injection. 12.5 mg/kg of ampicillin (Ampicillin sodium for injection; produced by Toyama Kagaku Co., Ltd., Japan) was administered to each mouse twice (directly after the intraperitoneal injection and 4 hours thereafter). Seven days after the challenge, viable count was examined.

Experiment [2] relates to E. coli ML 4707. Put plainly: Combination with an antibiotic in the immunosuppressive state (Table 12). It counts as in vivo, E. coli; female mice of the ICR/JCL strain. Conditions: only ampicillin, 6.25 mg/kg s.c.; cyclophosphamide. As for the experimental part: A sample was administered subcutaneously to the back of each of 5-weeks-old female mice of the ICR/JCL strain having a body weight of about 25 g (each group consisting of 10 mice) once a day continuously for four days (4 times in total). PS was given to a control group. On the first day, 200 mg/kg of cyclophosphamide was injected to them by the intraperitoneal injection. On the next day of the final administration (i.e. on the fifth day), 1.0×10^6 cells of E. coli ML 4707 was challenged thereto by the intraperitoneal injection. One hour thereafter, 6.25 mg/kg of ampicillin (Ampicillin-sodium for injection; produced by Toyama Kagaku Co., Ltd., Japan) was administered to the back of each mouse by the subcutaneous injection. Seven days after the challenge, viable count was examined.

For the molecule `CC1(C)S[C@@H]2[C@H](NC(=O)[C@H](N)c3ccccc3)C(=O)N2[C@H]1C(=O)O` [ampicillin], the Viable count in the experiment with E. coli ML 4707 [1] is on record as 20%; in the experiment on E. coli ML 4707 [2], 10%.
